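Test compounds were applied to cells in 96-well plates for 48 hours at 5 doses. At the GI50, growth is halved. TGI marks complete inhibition of growth.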
Assays:
Assay in all cases: NCI anticancer screen, dose series, 48 h
A498 renal = system: A498 renal
BT-549 breast = system: BT-549 breast
HOP-92 NSCLC = system: HOP-92 NSCLC
HS 578T breast = system: HS 578T breast
MDA-MB-231 breast = system: MDA-MB-231 breast
MDA-MB-435 = system: MDA-MB-435
NCI-H226 lung = system: NCI-H226 lung
NCI/ADR-RES ovarian = system: NCI/ADR-RES ovarian
SR leukemia = system: SR leukemia
786-0 renal = system: 786-0 renal
A549 NSCLC = system: A549 NSCLC
CCRF-CEM leukemia = system: CCRF-CEM leukemia
SF-539 CNS = system: SF-539 CNS

Compound | TGI (A498 renal) | TGI (BT-549 breast) | TGI (HOP-92 NSCLC) | TGI (HS 578T breast) | TGI (MDA-MB-231 breast) | TGI (MDA-MB-435) | TGI (NCI-H226 lung) | TGI (NCI/ADR-RES ovarian) | TGI (SR leukemia) | TGI (786-0 renal) | TGI (A549 NSCLC) | TGI (CCRF-CEM leukemia) | TGI (SF-539 CNS) | GI50 (A498 renal) | GI50 (BT-549 breast) | GI50 (CCRF-CEM leukemia) | GI50 (HS 578T breast) | GI50 (MDA-MB-231 breast) | GI50 (MDA-MB-435) | GI50 (SF-539 CNS)
C=CCOC1OC(CS(=O)(=O)O)C(O)C(O)C1O (stereo not given) | > 100 µM | > 100 µM | > 100 µM | > 100 µM | > 100 µM | > 100 µM | > 100 µM | > 100 µM | > 100 µM |  |  |  |  |  |  |  |  |  |  | 
Nc1ccc2nc3ccc(N)cc3[n+](-c3ccccc3)c2c1 | > 100 µM | > 100 µM | > 100 µM | > 100 µM | > 100 µM | > 100 µM |  | > 100 µM | > 100 µM | > 100 µM | > 100 µM | > 100 µM | > 100 µM |  |  |  |  |  |  | 
O=c1[nH]/c(=C/c2ccc(OCc3ccccc3)cn2)c(=O)[nH]/c1=C/c1ccc(Cl)cc1 | 7.53 µM | > 100 µM | > 100 µM | 2.68 µM | > 100 µM | 0.796 µM | > 100 µM | > 100 µM | 4.53 µM | > 100 µM | > 100 µM | > 100 µM | > 100 µM |  |  |  |  |  |  | 
CCCCNc1c(CN)cnc2cc(Cl)ccc12 | 28.7 µM | 31.8 µM | 35.1 µM | 37.2 µM | 30 µM | 35 µM | 32.6 µM | 32 µM |  | 40.2 µM | 41.5 µM | 18.7 µM |  |  |  |  |  |  |  | 
CCOC(=O)c1sc2nc(SC)nc3c2c1NCN3c1ccc2c(c1)OCCCO2 | 45.8 µM | > 100 µM | > 100 µM | 37 µM | > 100 µM | > 100 µM | > 100 µM | > 100 µM | > 100 µM | 26.8 µM | > 100 µM | > 100 µM | 53.9 µM |  |  |  |  |  |  | 
O=C(N/N=C/c1ccc([N+](=O)[O-])cc1)c1cccc2nc3ccccc3nc12 | > 100 µM | > 100 µM | > 87.3 µM | 73.6 µM | > 100 µM | > 100 µM | > 100 µM | > 100 µM | > 64.7 µM | > 100 µM | > 100 µM | > 100 µM | > 65.6 µM |  |  |  |  |  |  | 
C(=C\c1nccs1)/c1cccc(/C=C/c2nccs2)n1 | > 50 µM | > 50 µM | > 50 µM | > 50 µM | > 50 µM | > 50 µM | > 50 µM | > 50 µM | > 50 µM | > 50 µM | > 50 µM | > 50 µM | > 50 µM |  |  |  |  |  |  | 
Cc1ccc2cc3c(ccc4ccccc43)c3c2c1CC3 | > 100 µM | > 100 µM | > 100 µM | > 100 µM | > 100 µM | > 100 µM | > 100 µM | > 100 µM | > 100 µM | > 100 µM | > 100 µM | > 100 µM | > 100 µM | > 100 µM |  |  |  |  |  | 
CC(=O)OC1COC(n2nc(/C=C/c3ccc(Cl)cc3)c(=O)n(/N=C/c3ccccc3)c2=S)C(OC(C)=O)C1OC(C)=O (stereo not given) | > 100 µM | > 100 µM | > 100 µM | > 100 µM | > 100 µM | > 100 µM | > 100 µM | > 100 µM | > 100 µM | > 100 µM | > 100 µM | > 100 µM | > 100 µM |  |  |  |  |  |  | 
Cc1nc(Nc2ccc(F)cc2)c2sc(=S)n(-c3ccc(F)cc3)c2n1 | 33.4 µM | 27.1 µM |  | 37.7 µM | 26.9 µM | 22.7 µM | 33.5 µM | 37.3 µM | > 100 µM | 21.6 µM | 29.5 µM |  |  |  |  |  |  |  |  | 
COc1ccccc1N1C(Cl)C(=O)C1c1c[nH]c2ccccc12 (stereo not given) |  |  | > 100 µM |  |  |  |  |  | > 100 µM |  | > 100 µM | > 100 µM | > 100 µM |  |  |  |  |  |  | 
COc1cccc(Nc2nc(-c3cccs3)nc3ccc(Br)cc23)c1 | > 100 µM | > 100 µM | > 100 µM | > 100 µM | > 100 µM | > 100 µM | > 100 µM | > 100 µM | > 100 µM | > 100 µM | > 100 µM | > 100 µM | > 100 µM |  |  |  |  |  |  | 
c1ccc(C(c2ccccc2)[P+](c2ccccc2)(c2ccccc2)c2ccccc2)cc1 | 8.62 µM |  | 2.79 µM |  |  |  | 6.03 µM | > 100 µM |  |  | 14.6 µM | 14.6 µM | 6.31 µM |  |  |  |  |  |  | 
CN(C)CCCNc1ncnc2nc[nH]c12 | > 100 µM | > 100 µM | > 100 µM | > 100 µM | > 100 µM | > 100 µM | > 100 µM | > 100 µM |  | > 100 µM | > 100 µM | > 100 µM |  |  |  |  |  |  |  | 
COc1ccc2oc(=O)cc(C)c2c1 | > 100 µM | > 100 µM | > 100 µM | > 100 µM | > 100 µM | > 100 µM | > 100 µM | > 100 µM | > 100 µM | > 100 µM | > 100 µM | > 100 µM | > 100 µM |  |  |  |  |  |  | 
Cc1cc(OCc2nn(CN3CCN(C)CC3)c(=S)n2/N=C/c2ccc(-c3ccc(Cl)cc3Cl)o2)ccc1Cl | > 100 µM |  | 95.9 µM | > 100 µM | > 100 µM | > 100 µM | > 100 µM | > 100 µM |  | > 100 µM |  | > 100 µM | > 100 µM |  |  |  |  |  |  | 
FC(F)(F)C(C1=NC(C(F)(F)F)(C(F)(F)F)N=C(N2CCOCC2)O1)C(F)(F)F |  | 56 µM | > 100 µM | > 100 µM | 36.1 µM | 59.3 µM |  | 49.4 µM | 61.2 µM |  | 62.8 µM | 25.3 µM | 97.3 µM |  |  |  |  |  |  | 
COc1ccc(C2C3CCc4ccccc4C3=NN2S(=O)(=O)c2ccc(Cl)cc2)cc1 (stereo not given) |  | > 100 µM | > 100 µM | > 100 µM | > 100 µM | 4.62 µM | > 100 µM | 21.9 µM | 25.4 µM | 66.6 µM | > 100 µM | > 100 µM | 39.1 µM |  |  |  |  |  |  | 
O=C(O)C(O)Cc1ccccn1 (stereo not given) | > 100 µM | > 100 µM | > 100 µM | > 100 µM | > 100 µM | > 100 µM | > 100 µM | > 100 µM | > 100 µM |  | > 100 µM | > 100 µM |  |  |  |  |  |  |  | 
COc1cc(-c2c(C#N)c(N)c(C#N)c3c2COc2ccccc2-3)cc(OC)c1OC | > 100 µM | > 75.4 µM | 38.6 µM | 39.7 µM | 40.2 µM | > 100 µM | 59.4 µM | > 100 µM | > 100 µM |  | > 100 µM | > 100 µM | 19.9 µM |  |  |  |  |  |  | 
O=C(c1ccccc1)[C@H]1Nc2ccc(Cl)cc2[C@H]2OCCC[C@@H]12 |  |  |  |  |  |  | 47.7 µM |  | 79.2 µM |  |  |  |  |  |  |  |  |  |  | 
C=CC(=O)N1CCN(c2nc(OC[C@@H]3CCCN3C)nc3c2CCN(c2cccc4cccc(C)c24)C3)C[C@@H]1CC#N |  | 3.08 µM |  | 4.53 µM | 2.78 µM | 3.19 µM |  |  |  |  |  | 2.78 µM | 3.04 µM |  | 1580 nM | 475 nM | 1710 nM | 1390 nM | 1700 nM | 1630 nM
N=C(N)C(N=Nc1ccccc1)C(N)=O (stereo not given) | > 100 µM | > 100 µM | > 100 µM | > 100 µM | > 100 µM | > 100 µM | > 100 µM | > 100 µM |  | > 100 µM | > 100 µM |  |  |  |  |  |  |  |  | 
CS/C(=N\C(=S)Nc1ccccc1)Nc1ccccc1 | 81.5 µM |  |  |  |  |  | 70.5 µM |  | 64.1 µM |  | 59.2 µM |  |  |  |  |  |  |  |  | 
Nc1ccc(C2NC(=O)Cc3c2ccc2ccccc32)cc1 (stereo not given) | > 100 µM |  | > 100 µM | > 100 µM |  | > 100 µM | > 100 µM |  | > 100 µM |  | > 100 µM | > 100 µM | > 100 µM |  |  |  |  |  |  | 
NC(=O)NO | 1990 µM | > 2500 µM | 2330 µM | > 1220 µM | > 1410 µM | > 2500 µM | 2120 µM | 2400 µM | 1620 µM | 1770 µM | 2340 µM | 1060 µM | 1440 µM |  |  |  |  |  |  | 
